Reference: article PMC6858373 (Scientific Reports, 2019)
Structures can show the parent of a compound that is named as a salt. Where two headings read alike, the source gives them in different places.

What was measured:
[1] = target: T1, FGF14:Nav1.6 C-tail complex (Homo sapiens, UniProt Q92915+Q9UQD0); experiment: Split-luciferase complementation assay (LCA) in Clone V double stable HEK293 cells; format: cell-based
T1 construct: polymerase chain reaction (PCR) amplification of the FGF14 open reading frame (nt 1–855); C-terminal fragment of Nav1.6 (amino acids 1763–1976) fused with CD4ΔC-tail (amino acids 1–395); expressed in transfected cells

[2] = target: full-length P. pyralis luciferase (Photinus pyralis, UniProt P08659, K549A/L550V/N119G/N50D/S548I); format: cell-based
Clone V cells = conditions: human
in vitro = conditions: human
[3] = CC_NCI screening, biological replicate Set 1, normalized to on-plate 0.3% DMSO controls
[4] = CC_NCI screening, biological replicate Set 2, normalized to on-plate 0.3% DMSO controls
[5] = CC_NCI screening, biological replicate Set 2, normalized to on-plate 0.3% DMSO controls (n=16 per plate)
[6] = average of Set 1 and Set 2, normalized to 0.3% DMSO controls
[7] = CC_NCI screening, biological replicate Set 1, normalized to on-plate 0.3% DMSO controls (n=16 per plate)
[8] = CC_NCI screening, normalized to on-plate 0.3% DMSO controls

T1 sequence (Q92915 1-252 isoform Q92915-2): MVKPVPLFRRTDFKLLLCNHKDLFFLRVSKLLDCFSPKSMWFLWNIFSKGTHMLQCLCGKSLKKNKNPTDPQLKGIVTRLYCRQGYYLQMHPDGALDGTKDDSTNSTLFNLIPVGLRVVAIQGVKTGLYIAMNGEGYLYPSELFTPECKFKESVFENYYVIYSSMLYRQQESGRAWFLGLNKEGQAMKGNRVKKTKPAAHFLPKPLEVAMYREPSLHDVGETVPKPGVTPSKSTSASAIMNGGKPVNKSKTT
T1 sequence (Q9UQD0 1763-1976 limits assumed): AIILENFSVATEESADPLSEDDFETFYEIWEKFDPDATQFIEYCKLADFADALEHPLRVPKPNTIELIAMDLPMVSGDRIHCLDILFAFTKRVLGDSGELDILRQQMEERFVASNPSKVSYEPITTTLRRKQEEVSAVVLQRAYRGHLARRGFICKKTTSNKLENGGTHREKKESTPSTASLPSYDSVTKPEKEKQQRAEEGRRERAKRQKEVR
full-length P. pyralis luciferase, sequence (P08659 whole entry N50D/N119G/S548I/K549A/L550V, looked up): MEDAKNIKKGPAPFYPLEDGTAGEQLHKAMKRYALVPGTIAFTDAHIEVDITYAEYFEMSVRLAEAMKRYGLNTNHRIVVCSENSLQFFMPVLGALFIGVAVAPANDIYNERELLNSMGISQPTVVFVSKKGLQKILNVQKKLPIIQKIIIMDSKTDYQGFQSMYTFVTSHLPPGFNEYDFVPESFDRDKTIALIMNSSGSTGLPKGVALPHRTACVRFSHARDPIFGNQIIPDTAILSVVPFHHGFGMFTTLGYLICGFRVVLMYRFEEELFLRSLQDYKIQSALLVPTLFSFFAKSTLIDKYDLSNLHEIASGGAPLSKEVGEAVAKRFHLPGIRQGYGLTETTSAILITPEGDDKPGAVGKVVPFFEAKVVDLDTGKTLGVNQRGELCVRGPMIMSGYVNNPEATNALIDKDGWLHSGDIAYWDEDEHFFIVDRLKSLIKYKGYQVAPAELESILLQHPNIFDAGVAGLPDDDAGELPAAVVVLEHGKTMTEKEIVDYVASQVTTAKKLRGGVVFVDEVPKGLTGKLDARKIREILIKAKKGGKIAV

| Structure (SMILES) | Split Luciferase Assay Z-score Set 1 [1, 3] | Split Luciferase Assay Z-score Set 2 [1, 4] | Split Luciferase Assay %Lum Set 2 [1, 5] [%] | Split Luciferase Assay %Lum Avg [1, 6] [%] | Luciferase Assay % Lum (full-length luciferase counter-screen) [2] [%] | Luciferase Assay Z-score (full-length luciferase counter-screen) [2] | Toxicity Assay Z-score (CTB cell viability) (Clone V cells; 16 h, 30 µM) | viability at 16 h, 30 µM (in vitro) [%] | Split Luciferase Assay % Lum Set 1 [1, 7] [%] | Luciferase Assay % Lum (full-length luciferase counter-screen) [2, 8] [%] | Luciferase Assay Z-score (full-length luciferase counter-screen) [2, 8] | Split Luciferase Assay % Lum Set 1 [1] [%] | Split Luciferase Assay %Lum Avg [1] [%] | Split Luciferase Assay %Lum Set 2 [1] [%] | other results |
| --- | --- | --- | --- | --- | --- | --- | --- | --- | --- | --- | --- | --- | --- | --- | --- |
| CN(C)/N=N/c1[nH]cnc1C(N)=O [Dacarbazine] | 3.01 | 2.70 | 133.16 | 135.23 | 99.29 | -0.09 | 0.82 | 106 |  |  |  |  |  |  |  |
| COc1cc([C@@H]2c3cc4c(cc3[C@@H](O[C@@H]3O[C@@H]5CO[C@@H](c6cccs6)O[C@H]5[C@H](O)[C@H]3O)[C@H]3COC(=O)[C@H]23)OCO4)cc(OC)c1O [Teniposide] | 1.61 | 2.11 | 125.88 | 122.89 |  |  | 0.66 |  | 119.91 | 92.82 | -0.92 |  |  |  | viability at 16 h, 30 µM (in vitro; Clone V cells): 105% |
| CC(=O)O[C@]1(C(C)=O)CC[C@H]2[C@@H]3C=C(C)C4=CC(=O)CC[C@]4(C)[C@H]3CC[C@@]21C [Megestrol acetate] | 4.24 | 2.87 | 135.24 | 143.88 | 99.64 | -0.05 | 0.79 | 106 | 152.52 |  |  |  |  |  |  |
| O=NN(CCCl)C(=O)NC1CCCCC1 [Lomustine] | 0.12 | 2.53 |  |  |  |  |  |  |  | 109.33 | 1.20 | 101.43 | 116.25 | 131.08 | Toxicity Assay Z-score (CTB cell viability) (Clone V cells): 0.41; viability (in vitro): 103% |
| CC/C(=C(\c1ccccc1)c1ccc(OCCN(C)C)cc1)c1ccccc1 [Tamoxifen citrate] |  |  |  |  | 59.05 | -5.24 | -7.92 | 43.4 |  |  |  | 4.67 | 2.86 | 1.04 | Split Luciferase Assay Z-score Set 1 [1]: -7.70; Split Luciferase Assay Z-score Set 2 [1]: -8.05 |
| NCC(=O)CCC(=O)O [Aminolevulinic acid hydrochloride] | -0.06 | 0.75 | 109.23 | 104.24 |  |  | 0.31 |  | 99.25 | 100.02 | 0.00 |  |  |  | viability at 16 h, 30 µM (in vitro; Clone V cells): 102% |
| C1CN1c1nc(N2CC2)nc(N2CC2)n1 [Triethylenemelamine] |  |  |  |  | 108.47 | 1.08 |  |  |  |  |  | 118.82 | 117.67 | 116.51 | Split Luciferase Assay Z-score Set 1 [1]: 1.52; Split Luciferase Assay Z-score Set 2 [1]: 1.34; Toxicity Assay Z-score (CTB cell viability) (Clone V cells): 0.82; viability (in vitro): 106% |
| Nc1ncn([C@@H]2O[C@H](CO)[C@@H](O)[C@H]2O)c(=O)n1 [Azacitidine] | -0.32 | 0.24 | 102.99 | 99.49 |  |  | 0.41 | 103 | 95.99 | 93.68 | -0.81 |  |  |  |  |
| CN(C)C[C@@H]1CCn2cc(c3ccccc32)C2=C(C(=O)NC2=O)c2cn(c3ccccc23)CCO1 [LY 333531, reference compound] | -4.72 | -5.94 | 27.05 | 34.34 |  |  | 0.14 | 101 | 41.64 | 78.46 | -2.76 |  |  |  | Z-score (LCA primary screening) ([1]; 30 µM, 384-well, average of primary screening (n = 2), vs on-plate 0.3% DMSO): −5.33; IMin (% Luminescence) ([1]; antagonists, Clone V cells, 384-well, normalized to DMSO): 34.34 % Luminescence; IC50 ([1]; estimated, 8-point dose response 0.25-30 µM, n = 4 per concentration, library compounds, read-out: IC50): 12.2 µM |
